Measured values published in patent US20240368177A1, “5-AMINO-6,8-DIHYDRO-1H-FURO[3,4-d]PYRROLO[3,2-b]PYRIDINE-2-CARBOXAMIDE DERIVATIVES AS MTA-COOPERATIVE INHIBITORS OF PRMT5” (BeiGene Switzerland GmbH, priority 2023, published 2024).

What was measured:
HCT116-mock-RNA-KO = experiment: Cell killing in HCT116 isogenic pair (Cell Titer-Glo viability), mock knock-out cells with MTAP wildtype genotype; format: cell-based, human; details: Homo sapiens, HCT-116, 144 h, 6 days incubation, 0-10 μM
How it was run: (§1)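 HCT116 MTAP-knockout or mock-knockout (MTAP wildtype) cells in RPMI 1640 with 10% FBS were seeded overnight, then exposed to test compound at 0–10 μM final for 6 days at 37° C. Viability was measured by CellTiter-Glo luminescence and IC50 was fitted.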

HCT116-MTAP-KO = experiment: Cell killing in HCT116 isogenic pair (Cell Titer-Glo viability), MTAP knock-out cells; format: cell-based, human; details: Homo sapiens, HCT-116, 144 h, 6 days incubation, 0-10 μM, * = more than 50% viability inhibition at tested concentration without a full curve
How it was run: as §1

`CN(C(=O)c1cc2nc(N)c3c(c2[nH]1)COC3)[C@@H]1COC2(CC2)c2cc(Br)ccc21` [Example 179, (S)-5-amino-N-(7′-bromospiro[cyclopropane-1,1′-isochroman]-4′-yl)-N-methyl-6,8-dihydro-1H-furo[3,4-d]pyrrolo[3,2-b]pyridine-2-carboxamide] was tested, and the IC50 (HCT116-mock-RNA-KO) was 4390 nM and the IC50 (HCT116-MTAP-KO) was 24 nM.
For `C[C@H]1OCc2c1c(N)nc1cc(C(=O)N(C)[C@@H]3COC4(CC4)c4cc(Br)ccc43)[nH]c21` [Example 180, (R)-5-amino-N—((S)-7′-bromospiro[cyclopropane-1,1′-isochroman]-4′-yl)-N,6-dimethyl-6,8-dihydro-1H-furo[3,4-d]pyrrolo[3,2-b]pyridine-2-carboxamide], the IC50 (HCT116-mock-RNA-KO) was 3570 nM and the IC50 (HCT116-MTAP-KO) was 20 nM.
Compound `CN1CC[C@@H](N(C)C(=O)c2cc3nc(N)c4c(c3[nH]2)COC4)c2ccc(C(F)(F)F)cc21` [Example 181, (R)-5-amino-N-methyl-N-(1-methyl-7-(trifluoromethyl)-1,2,3,4-tetrahydroquinolin-4-yl)-6,8-dihydro-1H-furo[3,4-d]pyrrolo[3,2-b]pyridine-2-carboxamide] has an IC50 (HCT116-mock-RNA-KO) of 1800 nM and an IC50 (HCT116-MTAP-KO) of 15 nM.
